For this assay, the system named is bacterial strain LF82 binding to the glycoprotein BSA-(Mannose)3 (FimH antagonists). In words: Bacterial Binding Assay (BBA). It is filed as cell-based, Escherichia coli. The following applies: read-out: Bacterial Binding Assay IC50 ± SEM. The text has this: The purpose of the Bacterial Binding Assay (BBA) is to determine the inhibition activity of selective FimH antagonists on the bacterial strain LF82 binding to the glycoprotein BSA-(Mannose)3.
Below is a list of the Materials used to run the BBA are described below. • 1. LB broth: Supplier: Gibco, #10855 • 2. D-PBS: Supplier: Wisent, #311-425-CL • 3. LB agar plates • 4. 96-well black plate (high binding): Supplier: Costar, #3925 • 5. TopSeal™-A adhesive sealing films; Supplier PerkinElmer, #6005185 • 6. Carbonate-bicarbonate buffer pH 9.6 tablets, Supplier: Medicago, #09-8922-24 • 7. Water, Supplier: Gibco, #15230-162 • 8. Bovine serum albumin (BSA): Supplier: Sigma, #A-7888 • 9. (Man)3-BSA (α1-3, α1-6 Mannotriose-BSA, 1 mg), V-Labs, #NGP1336, lot# HGDX37-169-1 • 10. Tween 20: Supplier: Sigma, #P9416 • 11. Bright-Glo Luciferase Assay System: Supplier: Promega, #E2610 • 12. LF82/Luciferase strain: Invasive ability of an Escherichia coli strain isolated from the ileal mucosa of a patient with Crohn's disease. Boudeau J, Glasser A L, Masseret E, Joly B, Darfeuille-Michaud A, Infect Immun. 1999, 67(9), 4499-509
Solutions and buffers used to run the BBA are described below. • 1. 0.04M carbonate-bicarbonate buffer (coating buffer) • 2. 40 μg/mL BSA-(Man)3: Dissolve 1 mg of (Man)3-BSA in 25 mL of water. • 3. 4000 μg/mL BSA • 4. 40 μg/mL BSA • 5. 1 μg/mL BSA-(Man)3: 150 μL of 40 μg/mL BSA-(Man)3+5.85 mL of 40 μg/mL BSA • 6. 0.5 μg/mL BSA-(Man)3 in 0.02M carbonate-bicarbonate buffer. • 7. 20 μg/mL BSA in 0.02M carbonate-bicarbonate buffer • 8. Blocking buffer (2% BSA/DPBS): 1 g of BSA in 50 mL D-PBS • 9. 2× binding buffer (0.2% BSA/D-PBS): 5 mL of blocking buffer+45 mL D-PBS. • 10. Washing buffer (D-PBS/0.01% Tween 20): 10 μL of Tween 20 in 100 mL D-PBS. • 11. 1× Bright-Glo Luciferase substrate: Dilute 1:1 the Bright-Glo Luciferase Assay System with D-PBS
The experimental protocol used in this example to run the BBA is described below.
Overnight culture of LF82/Luciferase strain: Into two Falcon 50 mL tubes, add 20 mL of LB+20 μL of 50 mg/mL Kanamycin and inoculate with a loop from glycerol stock of the LF82/Luciferase strain. Incubate overnight at 37° C. with no shaking.
Glycoprotein coating of 96-well plates: Add 100 μL/well of 0.5-2 μg/mL BSA-(Man)3. 20 μg/mL BSA is used as the control background. Seal plate using an adhesive sealing film and incubate overnight at room temperature. Wash the 96-well plate three times with 150 μL/well of D-PBS, add 170 μL/well of blocking solution and incubate 45 min (minimum) at room temperature.
Preparation of bacterial suspension: Mix the two cultures tubes (40 mL) and perform a 1:10 dilution in LB (900 μl LB+100 μl culture. Measure optical density (OD) of the bacterial cultures. OD1 ˜5×10^8 cells/mL. Centrifuge LF82 culture for 20 min at 3500 rpm at room temperature. Re-suspend bacterial pellet in D-PBS and centrifuge again for 20 min at 3500 rpm. Re-suspend bacterial pellet in D-PBS to obtain a bacterial concentration of 2×10^9 bacteria/mL. Dilute 1/10 in D-PBS to obtain a final bacterial concentration of 2×10^8 bacteria/mL (=107 bacteria/50 μL). Perform 1/10 serial dilutions in LB of each bacterial suspension, plate 10 μL of dilutions on LB agar plates (final dilutions of 10^−7) and incubate overnight at 37° C. and count CFUs to determine the actual bacteria density in the assay.
Bacterial binding assay: Add 147 μL 2× binding buffer to compound plate (containing 3 μL of compound). After blocking step is performed (at least 45 min), wash plates three times with 200 μL/well of D-PBS. With a 100 μL multichannel manual pipettor, add 50 μL/well of compound diluted in 2× binding buffer. With a 100 μL multichannel manual pipettor, add 50 μL/well of bacterial suspension. Agitate at slow speed for 1 min and incubate 40-75 min at room temperature. Wash 5 times with 150 μL/well of washing buffer and then once with D-PBS. Add 100 μL/well of 1× Bright-Glo Luciferase substrate. […]

Among the data in patent publication US10407414B2, “Mannose derivatives for treating bacterial infections” (priority 2015, dated 2019) are IC50 values, retold here.

`O=c1cc(-c2cc(C#C[C@H]3O[C@H](CO)[C@@H](O)[C@H](O)[C@@H]3O)c3[nH]ncc3c2)cc[nH]1` [Compound 85, 4-[7-[2-[(2R,3S,4R,5S,6R)-3,4,5-trihydroxy-6-(hydroxymethyl)tetrahydropyran-2-yl]ethynyl]-1H-indazol-5-yl]-1H-pyridin-2-one]: the concentration for half-maximal inhibition (IC50) was determined as 0.4 ± 0.2 nM.
As to `O=C(O)c1cc(C#C[C@H]2O[C@H](CO)[C@@H](O)[C@H](O)[C@@H]2O)c2[nH]ncc2c1` [Compound 58, 7-[2-[(2R,3S,4R,5S,6R)-3,4,5-trihydroxy-6-(hydroxymethyl)tetrahydropyran-2-yl]ethynyl]-1H-indazole-5-carboxylic acid], the 50% inhibitory concentration (IC50) came out at 74 ± 15 nM.
In the case of `OC[C@H]1O[C@H](C#Cc2cc(-c3ccc(OCc4ccccc4)nc3)cc3cn[nH]c23)[C@@H](O)[C@@H](O)[C@@H]1O` [Compound 75, (2R,3S,4R,5S,6R)-2-[2-[5-(6-benzyloxy-3-pyridyl)-indazol-7-yl]ethynyl]-6-(hydroxymethyl)tetrahydropyran-3,4,5-triol], the concentration for half-maximal inhibition (IC50) was found to be 2 ± 0.7 nM.
The same measure for `O=c1ccc(-c2cc(C#C[C@H]3O[C@H](CO)[C@@H](O)[C@H](O)[C@@H]3O)c3[nH]ncc3c2)c[nH]1` [Compound 74, 5-[7-[2-[(2R,3S,4R,5S,6R)-3,4,5-trihydroxy-6-(hydroxymethyl)tetrahydropyran-2-yl]ethynyl]-1H-indazol-5-yl]-1H-pyridin-2-one]: 0.3 ± 0.05 nM; for `CCCCc1cc(C#C[C@H]2O[C@H](CO)[C@@H](O)[C@H](O)[C@@H]2O)c2[nH]c(=O)[nH]c2c1` [Compound 15, 6-butyl-4-[2-[(2R,3S,4R,5S,6R)-3,4,5-trihydroxy-6-(hydroxymethyl)tetrahydropyran-2-yl]ethynyl]-1,3-dihydrobenzimidazol-2-one]: 0.7 ± 0.2 nM; for `OC[C@H]1O[C@H](C#Cc2cccc3ncoc23)[C@@H](O)[C@@H](O)[C@@H]1O` [Compound 10, (2R,3S,4R,5S,6R)-2-[2-(1,3-benzoxazol-7-yl)ethynyl]-6-(hydroxymethyl)tetrahydropyran-3,4,5-triol]: 217 ± 133 nM.
For `OC[C@H]1O[C@H](C#Cc2cc(-c3cc(F)ccc3F)cc3cn[nH]c23)[C@@H](O)[C@@H](O)[C@@H]1O` [Compound 86, (2R,3S,4R,5S,6R)-2-[2-[5-(2,5-difluorophenyl)-1H-indazol-7-yl]ethynyl]-6-(hydroxymethyl)tetrahydropyran-3,4,5-triol] the value was 1 ± 0.2 nM.
Take `CN(C(=O)c1cc(C#C[C@H]2O[C@H](CO)[C@@H](O)[C@H](O)[C@@H]2O)c2[nH]ncc2c1)C1CCCCC1` [Compound 60, N-cyclohexyl-N-methyl-7-[2-[(2R,3S,4R,5S,6R)-3,4,5-trihydroxy-6-(hydroxymethyl)tetrahydropyran-2-yl]ethynyl]-1H-indazole-5-carboxamide]: the IC50 stood at 3 ± 2 nM.
The same measure for `CCCCc1cc(C#C[C@H]2O[C@H](CO)[C@@H](O)[C@H](O)[C@@H]2O)c2nn(C)cc2c1` [Compound 23, (2R,3S,4R,5S,6R)-2-[2-(5-butyl-2-methyl-indazol-7-yl)ethynyl]-6-(hydroxymethyl)tetrahydropyran-3,4,5-triol]: 9 nM.
The same measure for `OC[C@H]1O[C@H](C#Cc2cc(-c3ccccc3)cc3cn[nH]c23)[C@@H](O)[C@@H](O)[C@@H]1O` [Compound 25, (2R,3S,4R,5S,6R)-2-(hydroxymethyl)-6-[2-(5-phenyl-1H-indazol-7-yl)ethynyl]tetrahydropyran-3,4,5-triol]: 0.4 ± 0.04 nM; for `Cc1ccc(C)c(-c2cc(C#C[C@H]3O[C@H](CO)[C@@H](O)[C@H](O)[C@@H]3O)c3[nH]ncc3c2)c1` [Compound 82, (2R,3S,4R,5S,6R)-2-[2-[5-(2,5-dimethylphenyl)-1H-indazol-7-yl]ethynyl]-6-(hydroxymethyl)tetrahydropyran-3,4,5-triol]: 1 nM; for `CCc1ccccc1-c1cc(C#C[C@H]2O[C@H](CO)[C@@H](O)[C@H](O)[C@@H]2O)c2[nH]ncc2c1` [Compound 87]: 1 nM.

As a reminder, the IC50 is the point on the concentration scale where inhibition reaches its midpoint.
